Experiment [1] deals with Adenosine receptor A2a (Homo sapiens, UniProt P29274).
The target of experiment [2] is T1, Equilibrative nucleoside transporter 1 (Homo sapiens, UniProt Q99808).
T1 sequence (Q99808 whole entry): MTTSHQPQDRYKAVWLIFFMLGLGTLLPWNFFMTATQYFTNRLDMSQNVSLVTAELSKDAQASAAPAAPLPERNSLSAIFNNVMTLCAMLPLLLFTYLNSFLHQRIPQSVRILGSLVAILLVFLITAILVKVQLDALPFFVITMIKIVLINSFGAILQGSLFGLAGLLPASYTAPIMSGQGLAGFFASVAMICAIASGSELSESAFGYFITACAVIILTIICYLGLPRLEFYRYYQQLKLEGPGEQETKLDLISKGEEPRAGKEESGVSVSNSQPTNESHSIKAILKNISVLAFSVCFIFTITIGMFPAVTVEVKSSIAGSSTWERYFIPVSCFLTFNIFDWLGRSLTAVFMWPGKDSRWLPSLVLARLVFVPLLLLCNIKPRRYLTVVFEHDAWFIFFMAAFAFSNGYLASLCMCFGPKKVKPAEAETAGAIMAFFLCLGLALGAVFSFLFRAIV

Experiment [3] has as its target T2, 5-hydroxytryptamine receptor 3A (Homo sapiens, UniProt P46098).
T2 sequence (P46098 whole entry): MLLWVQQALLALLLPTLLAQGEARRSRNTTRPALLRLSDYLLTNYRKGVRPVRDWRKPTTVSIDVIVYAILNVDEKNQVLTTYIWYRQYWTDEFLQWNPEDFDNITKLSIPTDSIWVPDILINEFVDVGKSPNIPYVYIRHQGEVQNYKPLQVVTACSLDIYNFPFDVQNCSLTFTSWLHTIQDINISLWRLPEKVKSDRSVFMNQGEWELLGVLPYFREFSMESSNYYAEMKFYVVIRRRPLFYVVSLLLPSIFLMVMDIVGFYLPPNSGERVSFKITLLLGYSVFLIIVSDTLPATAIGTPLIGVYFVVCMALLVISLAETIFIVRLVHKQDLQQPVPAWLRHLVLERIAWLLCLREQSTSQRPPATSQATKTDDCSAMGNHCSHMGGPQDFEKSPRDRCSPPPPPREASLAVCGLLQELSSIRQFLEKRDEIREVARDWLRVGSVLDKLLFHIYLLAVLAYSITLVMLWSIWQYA
The class given is functional.

The target of experiment [4] is Gamma-aminobutyric acid receptor subunit alpha-1 (Rattus norvegicus, UniProt P62813).
Gamma-aminobutyric acid receptor subunit alpha-1, sequence (P62813 whole entry): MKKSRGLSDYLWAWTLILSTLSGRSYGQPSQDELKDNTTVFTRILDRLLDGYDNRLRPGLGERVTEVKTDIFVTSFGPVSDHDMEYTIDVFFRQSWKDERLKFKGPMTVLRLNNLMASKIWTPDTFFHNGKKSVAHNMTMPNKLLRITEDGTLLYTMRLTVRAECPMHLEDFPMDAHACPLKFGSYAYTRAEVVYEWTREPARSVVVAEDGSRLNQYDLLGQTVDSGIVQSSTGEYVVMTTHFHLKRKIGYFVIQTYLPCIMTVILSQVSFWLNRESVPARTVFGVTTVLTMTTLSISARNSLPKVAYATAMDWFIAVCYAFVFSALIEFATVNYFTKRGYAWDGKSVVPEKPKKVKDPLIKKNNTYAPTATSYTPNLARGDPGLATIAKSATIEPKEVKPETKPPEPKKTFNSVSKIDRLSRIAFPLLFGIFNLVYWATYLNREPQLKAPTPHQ
Experiment [5] concerns the target T3, Estrogen receptor (Homo sapiens, UniProt P03372).
T3 sequence (P03372 whole entry): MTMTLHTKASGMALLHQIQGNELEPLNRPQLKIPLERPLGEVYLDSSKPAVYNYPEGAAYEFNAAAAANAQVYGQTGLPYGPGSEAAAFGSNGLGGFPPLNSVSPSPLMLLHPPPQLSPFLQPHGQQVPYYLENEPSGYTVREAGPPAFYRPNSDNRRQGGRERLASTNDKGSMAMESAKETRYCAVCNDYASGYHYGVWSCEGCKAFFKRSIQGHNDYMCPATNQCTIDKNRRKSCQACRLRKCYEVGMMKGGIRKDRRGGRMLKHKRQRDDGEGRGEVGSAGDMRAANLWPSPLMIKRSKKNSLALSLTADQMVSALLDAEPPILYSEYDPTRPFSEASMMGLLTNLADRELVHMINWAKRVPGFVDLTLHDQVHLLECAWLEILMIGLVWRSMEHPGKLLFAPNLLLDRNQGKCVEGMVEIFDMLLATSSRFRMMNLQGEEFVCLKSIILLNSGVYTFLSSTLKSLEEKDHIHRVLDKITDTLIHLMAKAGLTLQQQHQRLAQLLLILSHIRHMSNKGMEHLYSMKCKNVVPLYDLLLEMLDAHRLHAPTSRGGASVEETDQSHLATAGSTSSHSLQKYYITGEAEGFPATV

Experiment [6] deals with Sodium-dependent noradrenaline transporter (Homo sapiens, UniProt P23975).
Sodium-dependent noradrenaline transporter, sequence (P23975 whole entry): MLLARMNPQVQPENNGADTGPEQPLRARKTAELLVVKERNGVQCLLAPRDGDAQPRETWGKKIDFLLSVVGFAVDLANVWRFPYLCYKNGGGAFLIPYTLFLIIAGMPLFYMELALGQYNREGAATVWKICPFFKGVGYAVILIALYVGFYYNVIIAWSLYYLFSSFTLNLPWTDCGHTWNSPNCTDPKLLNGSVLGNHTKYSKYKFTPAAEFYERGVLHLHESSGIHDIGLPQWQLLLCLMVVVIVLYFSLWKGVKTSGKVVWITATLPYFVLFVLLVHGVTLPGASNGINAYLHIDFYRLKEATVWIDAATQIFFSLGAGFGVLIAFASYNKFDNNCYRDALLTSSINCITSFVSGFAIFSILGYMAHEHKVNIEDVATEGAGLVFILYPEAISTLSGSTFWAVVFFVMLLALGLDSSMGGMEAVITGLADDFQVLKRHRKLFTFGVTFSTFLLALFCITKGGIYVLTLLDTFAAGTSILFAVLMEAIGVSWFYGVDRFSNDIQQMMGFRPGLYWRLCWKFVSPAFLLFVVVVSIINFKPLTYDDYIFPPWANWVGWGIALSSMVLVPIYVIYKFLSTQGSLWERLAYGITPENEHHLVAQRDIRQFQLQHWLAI
For experiment [7], the target named is T4, Type-1 angiotensin II receptor (Homo sapiens, UniProt P30556).
T4 sequence (P30556 whole entry): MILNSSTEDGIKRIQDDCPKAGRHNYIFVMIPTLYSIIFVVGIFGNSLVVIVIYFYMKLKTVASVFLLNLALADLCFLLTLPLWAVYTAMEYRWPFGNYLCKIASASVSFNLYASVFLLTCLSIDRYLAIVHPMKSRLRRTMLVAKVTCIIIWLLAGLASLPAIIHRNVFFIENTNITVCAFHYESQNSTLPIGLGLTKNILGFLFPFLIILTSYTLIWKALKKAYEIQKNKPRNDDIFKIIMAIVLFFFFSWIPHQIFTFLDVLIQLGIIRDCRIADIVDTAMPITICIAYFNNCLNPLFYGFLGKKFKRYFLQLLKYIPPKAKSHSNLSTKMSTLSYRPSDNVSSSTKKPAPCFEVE

The target of experiment [8] is Voltage-gated inwardly rectifying potassium channel KCNH2 (Homo sapiens, UniProt Q12809). In kind it is functional. As to conditions: read-out: AC50.
Voltage-gated inwardly rectifying potassium channel KCNH2, sequence (Q12809 whole entry): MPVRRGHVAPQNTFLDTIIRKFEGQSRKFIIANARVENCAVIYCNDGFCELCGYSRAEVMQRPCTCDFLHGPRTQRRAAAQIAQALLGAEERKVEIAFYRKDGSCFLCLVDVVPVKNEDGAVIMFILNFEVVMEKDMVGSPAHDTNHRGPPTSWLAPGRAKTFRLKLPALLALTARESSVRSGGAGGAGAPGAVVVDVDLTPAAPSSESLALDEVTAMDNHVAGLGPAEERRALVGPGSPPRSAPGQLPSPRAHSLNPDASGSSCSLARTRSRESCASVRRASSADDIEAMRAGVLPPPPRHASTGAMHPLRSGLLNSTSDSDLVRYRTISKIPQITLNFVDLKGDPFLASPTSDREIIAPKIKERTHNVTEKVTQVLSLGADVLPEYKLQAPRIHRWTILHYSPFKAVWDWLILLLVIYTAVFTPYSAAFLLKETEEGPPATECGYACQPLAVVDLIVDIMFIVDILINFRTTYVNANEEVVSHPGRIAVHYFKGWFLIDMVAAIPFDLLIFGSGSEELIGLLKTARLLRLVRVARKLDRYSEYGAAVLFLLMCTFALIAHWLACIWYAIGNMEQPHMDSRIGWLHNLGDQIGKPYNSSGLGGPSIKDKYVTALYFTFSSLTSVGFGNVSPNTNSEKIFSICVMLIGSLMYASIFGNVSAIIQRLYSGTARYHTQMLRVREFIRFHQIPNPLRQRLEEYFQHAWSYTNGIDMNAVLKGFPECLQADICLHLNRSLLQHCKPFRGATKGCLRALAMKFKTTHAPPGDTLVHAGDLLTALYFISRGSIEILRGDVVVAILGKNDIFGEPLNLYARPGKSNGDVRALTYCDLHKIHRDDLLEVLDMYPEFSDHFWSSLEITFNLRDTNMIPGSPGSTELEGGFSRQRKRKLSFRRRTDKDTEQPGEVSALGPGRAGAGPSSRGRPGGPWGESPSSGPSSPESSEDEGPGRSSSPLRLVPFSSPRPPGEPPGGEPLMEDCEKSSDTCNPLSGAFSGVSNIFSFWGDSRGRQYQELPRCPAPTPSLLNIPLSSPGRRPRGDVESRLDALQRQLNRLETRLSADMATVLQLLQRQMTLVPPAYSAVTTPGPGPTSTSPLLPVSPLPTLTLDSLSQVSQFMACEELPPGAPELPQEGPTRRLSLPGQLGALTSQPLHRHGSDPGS
Experiment [9] has as its target T5, Alpha-1A adrenergic receptor (Homo sapiens, UniProt P35348).
T5 sequence (P35348 whole entry): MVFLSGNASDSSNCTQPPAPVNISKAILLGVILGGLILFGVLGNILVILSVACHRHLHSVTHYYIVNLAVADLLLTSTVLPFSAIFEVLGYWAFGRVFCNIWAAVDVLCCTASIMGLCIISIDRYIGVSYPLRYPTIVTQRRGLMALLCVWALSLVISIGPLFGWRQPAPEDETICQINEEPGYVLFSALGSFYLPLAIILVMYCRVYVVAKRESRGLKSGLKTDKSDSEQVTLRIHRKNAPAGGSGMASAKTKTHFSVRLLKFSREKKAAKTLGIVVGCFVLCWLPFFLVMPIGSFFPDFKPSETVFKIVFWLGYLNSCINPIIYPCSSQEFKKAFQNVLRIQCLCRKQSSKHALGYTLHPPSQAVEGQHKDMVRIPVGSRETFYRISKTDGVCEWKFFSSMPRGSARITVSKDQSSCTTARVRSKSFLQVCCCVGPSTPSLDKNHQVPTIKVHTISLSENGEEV
The class given is functional, cell-based.
Also: assay procedure not described here.

Adenosine receptor A2a, sequence (P29274 whole entry): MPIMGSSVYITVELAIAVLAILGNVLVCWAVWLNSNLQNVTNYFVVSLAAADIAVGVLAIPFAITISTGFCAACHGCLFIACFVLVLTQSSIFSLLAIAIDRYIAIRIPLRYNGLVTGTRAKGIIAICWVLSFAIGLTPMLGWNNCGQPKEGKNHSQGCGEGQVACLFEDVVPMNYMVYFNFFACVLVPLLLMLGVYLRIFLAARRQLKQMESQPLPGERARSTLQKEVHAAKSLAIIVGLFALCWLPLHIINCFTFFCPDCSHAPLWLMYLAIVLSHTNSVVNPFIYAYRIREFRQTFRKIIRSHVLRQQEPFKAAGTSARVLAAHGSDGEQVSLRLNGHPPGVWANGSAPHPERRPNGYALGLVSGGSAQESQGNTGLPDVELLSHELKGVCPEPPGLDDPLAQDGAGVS

On to `COc1ccc(/C=C/C(=O)Nc2ccccc2C(=O)O)cc1OC`, for which the half-maximal activity concentration (AC50) in experiment [1], in [2], in experiment [3], in [4], in experiment [5] and in experiment [6] was over 30 µM throughout. The compound also came in with an AC50 in experiment [7] of over 30 µM.
Consider `N[C@H](Cc1cc(I)c(Oc2cc(I)c(O)c(I)c2)c(I)c1)C(=O)O` [DEXTROTHYROXINE], for which the half-maximal activity concentration (AC50) is over 30 µM in experiment [8]; over 30 µM in experiment [1]; over 30 µM in [2]; over 30 µM in experiment [3]; over 10 µM in [4]; over 30 µM in experiment [9]. Further, the AC50 in [6] and in [7] was over 30 µM each time.
Consider `COC(=O)N[C@@H](C)CNc1nccc(-c2cn(C(C)C)nc2-c2cc(Cl)cc(NS(C)(=O)=O)c2F)n1` [ENCORAFENIB], for which the concentration at half-maximal activity (AC50) in [8] was over 30 µM; in experiment [1], over 30 µM; in experiment [2], 25.9 µM; in experiment [3], over 30 µM; in experiment [4], over 30 µM; in [5], over 30 µM. The AC50 in experiment [6] and in [7] was over 30 µM in each case.
Take `Nc1ccn([C@@H]2O[C@H](CO)[C@@H](O)C2(F)F)c(=O)n1` [GEMCITABINE]: the AC50 in [8] was over 30 µM; in experiment [1] it was over 30 µM; in experiment [3] it was over 30 µM; in experiment [4] it was over 10 µM; in experiment [9], over 30 µM; in experiment [5] it was over 30 µM. Moreover, the half-maximal activity concentration (AC50) in [6] and in experiment [7] was over 30 µM in each case.
Regarding `C#C[C@]1(O)CC[C@H]2[C@@H]3CCC4=CC(=O)CCC4=C3C=C[C@@]21CC` [GESTRINONE], the AC50 is over 30 µM in experiment [8]; over 30 µM in experiment [1]; over 30 µM in experiment [3]; over 30 µM in experiment [4]; over 30 µM in [9]; 6.1 µM in experiment [5]. The AC50 in experiment [6] and in experiment [7] was over 30 µM in each case.
Consider `Nc1nc2c(c(=O)[nH]1)N(C=O)C(CNc1ccc(C(=O)N[C@@H](CCC(=O)O)C(=O)O)cc1)CN2` (some centres not stated) [LEUCOVORIN], for which the AC50 in experiment [8], in experiment [1], in experiment [2], in experiment [3], in [4] and in experiment [9] was over 30 µM throughout. Moreover, the concentration at half-maximal activity (AC50) in experiment [6] and in experiment [7] was over 30 µM in each case.
Regarding `CC#CCn1c(N2CCC[C@@H](N)C2)nc2c1c(=O)n(Cc1nc(C)c3ccccc3n1)c(=O)n2C` [LINAGLIPTIN], the concentration at half-maximal activity (AC50) in experiment [1] was over 30 µM; in experiment [2] it was over 30 µM; in experiment [3], over 30 µM; in experiment [4], over 10 µM; in [5], over 30 µM; in experiment [6], over 30 µM. Also, the half-maximal activity concentration (AC50) in [7] was over 30 µM.
In the case of `CC(C)OC(=O)C(C(=O)OC(C)C)=C1SC=CS1` [MALOTILATE], the AC50 in experiment [8], in [1], in [2], in [3], in [4] and in experiment [9] was over 30 µM throughout. Also, the AC50 in [6] and in [7] was over 30 µM throughout.
On to `CC(CCc1ccccc1)NC(C)C(O)c1ccc(O)cc1` (configuration not stated) [NYLIDRIN], for which the AC50 in [8] is 6.3 µM; in experiment [1], over 30 µM; in experiment [2], over 30 µM; in [3], over 10 µM; in experiment [4] it was over 10 µM; in experiment [5], over 30 µM. Moreover, the results for the half-maximal activity concentration (AC50) in [6] and in experiment [7] were 11 µM and over 30 µM, respectively.
`CC(=O)O[C@H]1C[C@@H]2CC[C@@H]3[C@H](CC[C@@]4(C)[C@H]3C[C@H]([N+]3(C)CCCCC3)[C@@H]4OC(C)=O)[C@@]2(C)C[C@@H]1[N+]1(C)CCCCC1` [PANCURONIUM]: the AC50 is 1.26 µM in experiment [8]; over 10 µM in experiment [1]; over 10 µM in experiment [2]; over 30 µM in [3]; over 10 µM in [4]; over 10 µM in experiment [5]. Further, the AC50 in experiment [6] and in experiment [7] was over 10 µM each time.
In the case of `CC1(C)C(C=C(Cl)Cl)C1C(=O)OCc1cccc(Oc2ccccc2)c1` (configuration not stated) [PERMETHRIN], the AC50 in [8] is over 30 µM; in experiment [1] it was over 10 µM; in [2], over 10 µM; in experiment [3] it was over 30 µM; in [4] it was over 10 µM; in [5], over 30 µM. Besides, the AC50 in experiment [6] and in experiment [7] was over 10 µM each time.
With `CCN(CC)CC(=O)Oc1ccc(NC(C)=O)cc1` [PROPACETAMOL], the half-maximal activity concentration (AC50) in [8], in experiment [1], in experiment [2], in experiment [3], in experiment [4] and in [9] was over 30 µM in each case. In addition, the AC50 in experiment [6] and in [7] was over 30 µM in each case.
For `Cc1ccc2c(-c3ccccc3)nc(=O)n(C(C)C)c2c1` [PROQUAZONE], the AC50 in [8], in experiment [1], in experiment [3], in experiment [4], in experiment [9] and in experiment [5] was over 30 µM throughout. Besides, the AC50 in [6] and in experiment [7] was over 30 µM each time.
For `CN1c2ccccc2C(NCCCCCCC(=O)O)c2ccc(Cl)cc2S1(=O)=O` (configuration not stated) [TIANEPTINE], the concentration at half-maximal activity (AC50) in [1], in experiment [3], in [4], in [9], in experiment [5] and in experiment [6] was over 30 µM each time. In experiment [7], this compound came in with an AC50 of over 30 µM.
`CC(C)(C)NC[C@H](O)COc1nsnc1N1CCOCC1` [TIMOLOL]: the AC50 in experiment [8], in [1], in [2], in [3], in experiment [4] and in [9] was over 30 µM each time. Also, the concentration at half-maximal activity (AC50) in experiment [6] and in experiment [7] was over 30 µM throughout.
